# From patent publication US20240269139A1, “COMPOUNDS FOR TARGETED PROTEIN DEGRADATION OF KINASES” (DANA-FARBER CANCER INSTITUTE, INC., priority 2020, published 2024)
# Where two headings read alike, the source gives them in different places.
# Columns and labels:
# Assay type in all cases: cell-based
# [1] = target: protein kinases (human kinome) (Homo sapiens, UniProt P51451)
# Description: (§1) Although development of targeted protein degraders requires a POI binder, among already-liganded proteins such as kinases, it was hypothesized that different targets would have a different propensity for current approaches to degrader-mediated destruction, which was termed ‘degradability’. […] It was rationalized that the probability of identifying the same kinase as a false positive in multiple treatments is low, therefore this analysis served to also assess the robustness of our data and subsequent interpretations. […] Overall, 62 protein kinases were degraded in more than 10 independent treatments, and remarkably, 9 of these (CDK4, AURKA, FER, WEE1, BLK. LIMK2, CDK6, GAK, LIMK1) were each degraded in at least 40 of the 154 independent treatments, emphasizing their predisposition to induced degradation (FIG. 1G; Appendix I).
# (§2) Next, the frequency of degradation assessment was corrected for over-representation of molecules in the full dataset by omitting replicate profiling of compounds under different experimental conditions, to remove any bias. […] Unsurprisingly, the top degradable kinases mirror those from the previous analysis (CDK4, AURKA, FER, WEE1, BLK), confirming that in sufficiently large datasets, even with over-representation of certain molecules, frequency of degradation is a good measure of general tractability.
# [2] = target: protein kinases (human kinome) (Homo sapiens, UniProt Q00534)
# Description: as §1, §2
# [3] = target: protein kinases (human kinome) (Homo sapiens, UniProt P53671); conditions: experiment wp016
# Description: as §1, §2
# [4] = target: protein kinases (human kinome) (Homo sapiens, UniProt P16591)
# Description: as §1, §2
# [5] = system: protein kinases (human kinome)
# Description: as §1, §2
# [6] = target: protein kinases (human kinome) (Homo sapiens, UniProt O94804); conditions: STK10 (O94804), experiment wp016
# Description: as §1, §2
# [7] = target: protein kinases (human kinome) (Homo sapiens, UniProt P11802); conditions: experiment wp016
# Description: as §1, §2
# [8] = target: protein kinases (human kinome) (Homo sapiens, UniProt Q2M2I8); conditions: experiment wp016
# Description: as §1, §2
# [9] = target: protein kinases (human kinome) (Homo sapiens, UniProt P50613)
# Description: as §1, §2
# [10] = target: protein kinases (human kinome) (Homo sapiens, UniProt Q00537); conditions: experiment wp016
# Description: as §1, §2
# [11] = target: protein kinases (human kinome) (Homo sapiens, UniProt Q14289)
# Description: as §1, §2
# [12] = target: T1, protein kinases (human kinome) (Homo sapiens, UniProt Q08881); conditions: experiment wp016
# T1 sequence (Q08881 1-620): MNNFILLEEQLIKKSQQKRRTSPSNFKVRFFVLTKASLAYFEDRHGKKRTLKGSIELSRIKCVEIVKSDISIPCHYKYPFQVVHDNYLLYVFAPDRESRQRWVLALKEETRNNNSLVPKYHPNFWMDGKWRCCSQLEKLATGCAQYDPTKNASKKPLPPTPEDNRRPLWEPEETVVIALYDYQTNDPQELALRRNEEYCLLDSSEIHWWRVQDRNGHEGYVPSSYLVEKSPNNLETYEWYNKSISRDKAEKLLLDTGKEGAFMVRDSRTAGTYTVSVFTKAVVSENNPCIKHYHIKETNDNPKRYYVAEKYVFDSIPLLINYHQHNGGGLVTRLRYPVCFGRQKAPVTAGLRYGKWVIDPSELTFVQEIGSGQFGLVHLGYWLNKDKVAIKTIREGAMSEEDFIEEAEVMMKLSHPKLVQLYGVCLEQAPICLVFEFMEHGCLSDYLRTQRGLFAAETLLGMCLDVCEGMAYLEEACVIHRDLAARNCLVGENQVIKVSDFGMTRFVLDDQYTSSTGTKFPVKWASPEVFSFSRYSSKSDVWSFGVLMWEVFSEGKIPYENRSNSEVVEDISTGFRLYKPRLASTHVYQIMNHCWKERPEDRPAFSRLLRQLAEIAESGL
# Description: as §1, §2
# [13] = target: T2, protein kinases (human kinome) (Homo sapiens, UniProt O14965); conditions: experiment wp016
# T2 sequence (O14965 1-403): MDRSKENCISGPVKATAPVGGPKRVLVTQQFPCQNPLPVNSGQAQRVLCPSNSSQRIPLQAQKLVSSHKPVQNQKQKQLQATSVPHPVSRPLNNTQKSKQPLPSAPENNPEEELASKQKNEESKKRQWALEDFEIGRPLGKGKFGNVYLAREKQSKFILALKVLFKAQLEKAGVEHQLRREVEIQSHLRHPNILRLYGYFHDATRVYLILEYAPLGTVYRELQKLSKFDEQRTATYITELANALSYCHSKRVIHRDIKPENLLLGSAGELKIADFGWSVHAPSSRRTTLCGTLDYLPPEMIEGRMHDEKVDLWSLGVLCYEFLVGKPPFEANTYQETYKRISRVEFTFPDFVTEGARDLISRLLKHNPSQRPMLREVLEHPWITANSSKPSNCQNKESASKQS
# Description: as §1, §2
# [14] = target: protein kinases (human kinome) (Homo sapiens, UniProt Q00535); conditions: experiment wp016
# Description: as §1, §2
# [15] = target: protein kinases (human kinome) (Homo sapiens, UniProt P24941); conditions: experiment wp016
# Description: as §1, §2
# [16] = target: protein kinases (human kinome) (Homo sapiens, UniProt P30291); conditions: experiment wp016
# Description: as §1, §2
# [17] = target: protein kinases (human kinome) (Homo sapiens, UniProt Q9NYV4); conditions: experiment wp016
# Description: as §1, §2
# Chain of protein kinases (human kinome) (Homo sapiens, UniProt Q00537) (Q00537 whole entry): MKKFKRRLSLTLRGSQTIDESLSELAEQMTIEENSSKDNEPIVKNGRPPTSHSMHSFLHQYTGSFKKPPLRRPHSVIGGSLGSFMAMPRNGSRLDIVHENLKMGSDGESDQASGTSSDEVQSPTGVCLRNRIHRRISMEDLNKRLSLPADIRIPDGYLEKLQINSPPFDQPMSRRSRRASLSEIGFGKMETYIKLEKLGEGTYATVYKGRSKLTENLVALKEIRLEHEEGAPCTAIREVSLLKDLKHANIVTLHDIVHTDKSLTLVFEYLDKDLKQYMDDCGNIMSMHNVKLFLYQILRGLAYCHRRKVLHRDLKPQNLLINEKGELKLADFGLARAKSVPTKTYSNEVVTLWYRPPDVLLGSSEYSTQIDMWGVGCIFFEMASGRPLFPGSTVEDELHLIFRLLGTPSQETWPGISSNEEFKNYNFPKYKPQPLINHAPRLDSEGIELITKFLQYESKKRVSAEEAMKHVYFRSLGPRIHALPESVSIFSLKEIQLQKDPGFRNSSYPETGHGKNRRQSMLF
# Chain of protein kinases (human kinome) (Homo sapiens, UniProt Q00535) (Q00535 whole entry): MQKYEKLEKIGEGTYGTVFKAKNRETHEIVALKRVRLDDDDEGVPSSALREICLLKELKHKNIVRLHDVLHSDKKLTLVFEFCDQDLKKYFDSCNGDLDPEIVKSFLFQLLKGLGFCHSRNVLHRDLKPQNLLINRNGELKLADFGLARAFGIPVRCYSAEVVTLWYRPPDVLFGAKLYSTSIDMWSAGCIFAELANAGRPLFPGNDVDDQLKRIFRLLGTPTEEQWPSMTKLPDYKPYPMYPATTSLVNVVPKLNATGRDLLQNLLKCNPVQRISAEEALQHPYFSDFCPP
# Chain of protein kinases (human kinome) (Homo sapiens, UniProt P51451) (P51451 whole entry): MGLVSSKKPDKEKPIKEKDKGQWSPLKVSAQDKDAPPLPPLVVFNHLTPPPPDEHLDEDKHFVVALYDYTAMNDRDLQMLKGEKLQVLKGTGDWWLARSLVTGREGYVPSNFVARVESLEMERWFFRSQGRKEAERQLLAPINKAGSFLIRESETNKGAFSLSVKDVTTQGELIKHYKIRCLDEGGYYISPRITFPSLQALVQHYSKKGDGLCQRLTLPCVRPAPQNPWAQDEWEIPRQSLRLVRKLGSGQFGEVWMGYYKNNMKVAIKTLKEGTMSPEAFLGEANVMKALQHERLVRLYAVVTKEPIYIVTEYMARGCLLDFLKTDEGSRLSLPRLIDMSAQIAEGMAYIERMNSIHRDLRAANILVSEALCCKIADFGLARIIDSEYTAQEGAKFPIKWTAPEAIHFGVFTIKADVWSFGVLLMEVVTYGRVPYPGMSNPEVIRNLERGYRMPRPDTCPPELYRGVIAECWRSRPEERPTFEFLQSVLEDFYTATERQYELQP
# Chain of protein kinases (human kinome) (Homo sapiens, UniProt Q9NYV4) (Q9NYV4 whole entry): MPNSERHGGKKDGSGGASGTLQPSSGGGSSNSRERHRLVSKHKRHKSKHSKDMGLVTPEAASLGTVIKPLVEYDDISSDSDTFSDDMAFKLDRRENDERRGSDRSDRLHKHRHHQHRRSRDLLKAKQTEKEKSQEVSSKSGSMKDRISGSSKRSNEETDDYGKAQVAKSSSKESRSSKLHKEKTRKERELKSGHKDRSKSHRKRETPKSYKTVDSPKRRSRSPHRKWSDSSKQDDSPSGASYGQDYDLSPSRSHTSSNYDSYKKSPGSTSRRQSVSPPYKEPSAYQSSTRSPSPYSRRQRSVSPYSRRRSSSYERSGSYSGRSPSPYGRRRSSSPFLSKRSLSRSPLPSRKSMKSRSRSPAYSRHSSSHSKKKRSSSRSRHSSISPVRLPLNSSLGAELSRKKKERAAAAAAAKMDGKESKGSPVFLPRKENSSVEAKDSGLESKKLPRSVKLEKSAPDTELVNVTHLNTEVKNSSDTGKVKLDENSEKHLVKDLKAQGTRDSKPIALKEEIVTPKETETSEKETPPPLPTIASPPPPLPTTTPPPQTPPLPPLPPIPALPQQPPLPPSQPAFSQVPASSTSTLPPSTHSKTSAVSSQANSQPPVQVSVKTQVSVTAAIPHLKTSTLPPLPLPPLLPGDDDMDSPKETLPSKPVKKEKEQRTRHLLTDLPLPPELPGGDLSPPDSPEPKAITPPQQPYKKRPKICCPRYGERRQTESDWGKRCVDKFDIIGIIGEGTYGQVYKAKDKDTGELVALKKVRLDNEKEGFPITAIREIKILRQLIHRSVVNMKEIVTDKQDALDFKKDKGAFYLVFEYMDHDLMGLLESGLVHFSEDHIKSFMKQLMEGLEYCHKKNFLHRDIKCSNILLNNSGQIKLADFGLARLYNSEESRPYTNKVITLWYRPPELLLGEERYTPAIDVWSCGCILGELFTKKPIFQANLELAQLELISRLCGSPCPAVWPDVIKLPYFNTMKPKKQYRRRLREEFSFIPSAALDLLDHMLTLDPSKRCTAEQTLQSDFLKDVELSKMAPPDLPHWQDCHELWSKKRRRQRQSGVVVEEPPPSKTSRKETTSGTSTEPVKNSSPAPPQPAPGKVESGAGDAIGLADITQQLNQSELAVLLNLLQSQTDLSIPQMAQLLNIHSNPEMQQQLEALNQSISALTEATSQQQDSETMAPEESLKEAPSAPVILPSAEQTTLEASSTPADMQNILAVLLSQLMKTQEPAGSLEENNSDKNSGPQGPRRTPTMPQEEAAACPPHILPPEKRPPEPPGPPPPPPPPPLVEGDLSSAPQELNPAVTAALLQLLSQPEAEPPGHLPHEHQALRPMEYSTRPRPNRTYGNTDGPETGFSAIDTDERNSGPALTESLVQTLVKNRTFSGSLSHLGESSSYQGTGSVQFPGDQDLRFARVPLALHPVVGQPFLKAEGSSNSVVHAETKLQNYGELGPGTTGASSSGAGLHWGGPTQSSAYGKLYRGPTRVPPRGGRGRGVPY
# Chain of protein kinases (human kinome) (Homo sapiens, UniProt Q2M2I8) (Q2M2I8 whole entry): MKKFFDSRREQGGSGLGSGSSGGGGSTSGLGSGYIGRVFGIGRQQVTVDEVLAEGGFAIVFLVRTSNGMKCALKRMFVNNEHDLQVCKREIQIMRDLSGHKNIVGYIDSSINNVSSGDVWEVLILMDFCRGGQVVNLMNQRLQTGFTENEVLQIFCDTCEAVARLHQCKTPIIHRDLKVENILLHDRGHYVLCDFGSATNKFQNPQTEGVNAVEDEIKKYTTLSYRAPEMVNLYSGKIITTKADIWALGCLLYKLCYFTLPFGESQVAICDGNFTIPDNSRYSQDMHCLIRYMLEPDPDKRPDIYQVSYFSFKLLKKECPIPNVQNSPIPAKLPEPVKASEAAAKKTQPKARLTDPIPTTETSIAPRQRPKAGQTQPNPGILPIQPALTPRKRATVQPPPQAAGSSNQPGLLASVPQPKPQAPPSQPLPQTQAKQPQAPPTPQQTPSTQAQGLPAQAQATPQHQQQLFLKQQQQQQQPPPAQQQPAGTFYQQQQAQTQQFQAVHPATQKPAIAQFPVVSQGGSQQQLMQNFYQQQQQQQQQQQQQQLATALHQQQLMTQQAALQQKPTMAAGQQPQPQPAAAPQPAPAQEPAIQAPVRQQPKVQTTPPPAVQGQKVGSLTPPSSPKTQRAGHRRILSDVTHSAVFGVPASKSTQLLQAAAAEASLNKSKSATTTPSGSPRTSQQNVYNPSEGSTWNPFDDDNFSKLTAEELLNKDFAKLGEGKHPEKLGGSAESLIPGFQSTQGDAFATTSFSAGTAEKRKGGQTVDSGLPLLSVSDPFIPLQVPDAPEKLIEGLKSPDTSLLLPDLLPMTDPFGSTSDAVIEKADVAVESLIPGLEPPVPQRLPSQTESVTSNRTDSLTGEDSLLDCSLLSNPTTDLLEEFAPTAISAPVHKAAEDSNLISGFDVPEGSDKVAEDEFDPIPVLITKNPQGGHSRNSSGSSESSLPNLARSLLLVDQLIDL
# Chain of protein kinases (human kinome) (Homo sapiens, UniProt P30291) (P30291 whole entry): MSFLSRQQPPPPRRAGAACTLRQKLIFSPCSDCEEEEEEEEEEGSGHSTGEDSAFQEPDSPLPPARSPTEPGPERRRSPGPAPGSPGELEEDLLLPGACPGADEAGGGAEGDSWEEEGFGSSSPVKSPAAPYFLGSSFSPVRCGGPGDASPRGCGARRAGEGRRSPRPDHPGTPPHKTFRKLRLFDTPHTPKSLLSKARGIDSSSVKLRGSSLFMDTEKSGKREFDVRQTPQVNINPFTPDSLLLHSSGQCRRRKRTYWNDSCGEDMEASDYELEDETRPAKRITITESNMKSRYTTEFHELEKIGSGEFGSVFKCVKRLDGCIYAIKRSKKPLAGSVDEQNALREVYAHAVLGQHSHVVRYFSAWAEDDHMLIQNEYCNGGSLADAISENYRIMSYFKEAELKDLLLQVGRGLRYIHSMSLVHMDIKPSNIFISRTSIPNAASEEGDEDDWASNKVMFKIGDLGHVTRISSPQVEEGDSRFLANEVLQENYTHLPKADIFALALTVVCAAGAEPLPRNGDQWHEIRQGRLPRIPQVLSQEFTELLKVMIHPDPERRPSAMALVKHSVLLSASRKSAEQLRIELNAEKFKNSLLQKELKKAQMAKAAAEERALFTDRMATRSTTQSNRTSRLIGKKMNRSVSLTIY
# Chain of protein kinases (human kinome) (Homo sapiens, UniProt Q00534) (Q00534 whole entry): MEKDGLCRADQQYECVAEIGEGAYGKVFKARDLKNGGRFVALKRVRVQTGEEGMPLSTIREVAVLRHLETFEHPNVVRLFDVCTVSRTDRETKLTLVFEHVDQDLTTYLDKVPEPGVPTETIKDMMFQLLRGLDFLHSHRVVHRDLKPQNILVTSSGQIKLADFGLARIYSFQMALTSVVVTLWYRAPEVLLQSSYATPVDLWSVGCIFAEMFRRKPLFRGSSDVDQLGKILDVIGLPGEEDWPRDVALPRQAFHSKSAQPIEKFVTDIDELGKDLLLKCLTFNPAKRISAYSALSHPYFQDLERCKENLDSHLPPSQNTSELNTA
# Chain of protein kinases (human kinome) (Homo sapiens, UniProt P11802) (P11802 whole entry): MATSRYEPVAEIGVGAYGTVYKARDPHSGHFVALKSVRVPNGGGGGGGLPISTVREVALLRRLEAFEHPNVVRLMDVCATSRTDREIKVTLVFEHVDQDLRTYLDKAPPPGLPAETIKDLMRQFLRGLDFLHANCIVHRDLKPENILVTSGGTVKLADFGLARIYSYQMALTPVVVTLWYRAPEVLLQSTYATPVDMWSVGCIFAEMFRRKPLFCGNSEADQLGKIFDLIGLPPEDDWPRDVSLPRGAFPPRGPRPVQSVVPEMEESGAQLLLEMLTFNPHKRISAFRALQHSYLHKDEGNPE
smiles,measurement,setting,value
CC(C)S(=O)(=O)c1ccccc1Nc1nc(Nc2ccc(N3CCN(CCOCCOCCOCCNC(=O)CNc4ccc5c(c4)C(=O)N(C4CCC(=O)NC4=O)C5=O)CC3)cc2)ncc1Cl (stereo not drawn) [SK.3.89],logFC of BLK,"[1]; BLK P51451, experiment wp016",−1.335
same,logFC of BLK (P51451),"[1]; Experiment wp016, down",−1.335
same,logFC CDK6,"[2]; CDK6 (Q00534), direction down, experiment wp016",−0.3396
same,logFC of CDK6 (Q00534),"[2]; Experiment wp016, down",−0.3396
same,logFC LIMK2,"[3]; LIMK2 (P53671), down",−0.444
same,logFC of LIMK2,[3]; LIMK2 P53671,−0.444
same,logFC of FER (P16591-1),"[4]; Experiment wp016, down",−2.262
same,logFC of FER,"[4]; FER P16591-1, experiment wp016",−2.262
same,logFC,"[5]; CDK9 (P50750-2) protein abundance, degrader vs DMSO, down",−0.4777
same,logFC LCK,"[5]; LCK, accession P06239-3, experiment wp016, direction of change down",−0.449
same,logFC CDK9 (P50750-2),[5]; experiment wp016,−0.4777
same,logFC LCK (P06239-3),"[5]; experiment wp016, direction of change down",−0.449
same,logFC,[6],−0.3539
same,logFC,[6]; direction down,−0.3539
same,logFC CDK4 (P11802),[7],−0.5177
same,logFC AAK1,"[8]; AAK1 (Q2M218-1), down",−1.219
same,logFC AAK1,"[8]; AAK1, accession Q2M218-1, direction of change down",−1.219
same,logFC,"[9]; CDK7 (P50613) protein abundance, degrader vs DMSO, down",−0.7959
same,logFC CDK7,"[9]; CDK7 P50613, experiment wp016",−0.7959
same,logFC of CDK17,[10]; Accession Q00537,−0.6057
same,logFC CDK17 (Q00537),[10]; direction of change down,−0.6057
same,logFC,"[11]; PTK2B (Q14289-1) protein abundance, degrader vs DMSO, down",−3.554
same,logFC PTK2B,"[11]; PTK2B, accession Q14289-1, experiment wp016, direction of change down",−3.554
same,logFC ITK (Q08881),[12],−2.044
same,logFC ITK (Q08881),[12]; direction of change down,−2.044
same,logFC AURKA (O14965),[13],−1.672
same,logFC of CDK5,[14]; Accession Q00535,−0.6254
same,logFC CDK5 (Q00535),[14]; direction of change down,−0.6254
same,logFC CDK2 (P24941-1),[15],−0.5953
same,logFC CDK2 (P24941-1),[15]; direction of change down,−0.5953
same,logFC WEE1 (P30291-1),[16],−1.017
same,logFC CDK12,[17]; Accession Q9NYV4-1,−0.5237
same,logFC CDK12,[17]; CDK12 (Q9NYV4-1),−0.5237
